In patent US9101671B2, “Methods and compositions related to clot binding compounds” (Sanford-Burnham Medical Research Institute, priority 2007, dated 2015):
Where no end group is shown, it is not given here.

Experiments:
[1] = test system: human plasma clots; test: Nanoparticle binding to human plasma clots in vitro
Protocol: (§1) Phage binding to clotted plasma proteins was determined as described (Pilch 2006). CREKA-SPIO and control SPIO were added to freshly formed plasma clots in the presence or absence of free CREKA peptide. After 10 min incubation, the clots were washed 4 times in PBS, transferred to a new tube and digested in 100 μl concentrated nitric acid. The digested material was diluted in 2 ml distilled water and the iron concentration was determined using inductively coupled plasma-optical emission spectroscopy (ICP-OES, PerkinElmer, Norwalk, Conn.).

[2] = Nanoparticle clearance (plasma circulation half-life); format: in vivo, mice
[3] = test system: mouse plasma clots; test: Nanoparticle binding to mouse plasma clots in vitro
Protocol: as §1

[4] = test system: platelets; test: Role of platelets in nanoparticle homing; format: in vivo, mice; conditions: platelet depletion with anti-CD41 monoclonal antibody
Protocol: (A). Blood was drawn 5 min post-injection of 4 mg/kg of CREKA-SPIO into mice and a 50 μl aliquot was run through a magnetic column. Bound CREKA-SPIO particles were eluted form the column, concentrated on a slide, and stained with anti-CD41 antibody. Some of the particles appear to be associated with platelets. (B). A low-magnification image (40×) showing CREKA-SPIO homing and clot formation in a tumor from a platelet-depleted mouse. Platelet depletion was accomplished by treating mice with 0.1 mg of an anti-CD41 monoclonal antibody as described (Van der Heyde and Gramaglia (2005)). The mice subsequently received Ni-liposomes/CREKA-SPIO as described in the legend of FIG. 2.

[5] = test system: tumor blood vessels; test: Intravital confocal microscopy of tumor blood flow; format: in vivo, mice; conditions: 4 mg/kg i.v.; Ni-liposome pre-injection; DiI-labeled erythrocytes as flow marker
Protocol: (§2) Mice bearing MDA-MB-435 xenografts were injected with Ni-liposomes and CREKA-SPIO nanoparticles as described in the legend to FIG. 2. The mice were perfused 6 hours after the nanoparticle injection and tissues were collected. (A) Upper panels: Co-localization of nanoparticle fluorescence with CD31 staining in blood vessels; Middle panels: Co-localization of nanoparticle fluorescence and anti-fibrin(ogen) staining in tumor blood vessels. Inset—an image showing CREKA-SPIO distributed along fibrils in a tumor blood vessel; Lower panels: Lack of co-localization of nanoparticle fluorescence with anti-CD41 staining for platelets. (B) Intravital confocal microscopy of tumors using DiI-stained red blood cells as a marker of blood flow. The arrow points to a vessel in which stationary erythrocytes indicate obstruction of blood flow. Blood flow in the vessel above is not obstructed. Six successive frames from a 1-min movie (Movie 2 in Supplementary Material) are shown. (C) CREKA-coated liposomes co-localize with fibrin in tumor vessels. The results are representative of 3 independent experiments. Magnification: A and C, 600×, B, 200×.
Tumor blood flow in MDA-MB 435 xenograft-bearing mice was observed by intravital microscopy. Mice were pre-injected with Ni-liposomes and 5×10^8 of DiI-labeled erythrocytes. […] Movies were recorded at 10 min intervals up to 120 min post-injection.

[6] = test system: MDA-MB-435 breast cancer xenografts; test: Tumor homing and tissue distribution of intravenously injected particles (fluorescence microscopy); format: in vivo, mice
Protocol: CREKA-SPIO particles were intravenously injected (4 mg Fe/kg) into Balb/c nude mice bearing MDA-MB-435 human breast cancer xenograft tumors measuring 1-1.5 cm in diameter. The mice were sacrificed by perfusion 5-6 hours later and tissues were examined for CREKA-SPIO fluorescence (green). Nuclei were stained with DAPI (blue). (A) Distribution of CREKA-SPIO in tissues from MDA-MB-435 tumor mice that received 2 hours earlier an injection of PBS (A, upper panels) or Ni/DSPC/CHOL liposomes (Ni-liposomes) containing 0.2 μmol Ni in 200 μl of PBS (A, lower panels). (B) Plasma circulation half-life of CREKA-SPIO following different treatments. At least 4 time points were collected. Data were fitted to mono-exponential decay using Prizm software (GraphPad, San Diego, Calif.), and the half-life values were compared in unpaired t-test (***p<0.0001, n=10). (C) Accumulation of CREKA-SPIO nanoparticles in tumor vessels. Mice were injected and tissues collected as in panel A. Fluorescent intravascular CREKA-SPIO particles overlap with iron oxide viewed in transmitted light. Magnification: 600×. (D) Control organs of Ni-liposome/CREKA-SPIO-injected mice. Occasional spots of fluorescence are seen in the kidneys and lungs. […] Representative results from at least 3 independent experiments are shown. Magnification A and D, 200×; C, 600×.
(§3) For intravenous injections, the animals were anesthetized with intraperitoneal Avertin, and liposomes (2 μmol DSPC) and/or nanoparticles (1-4 mg Fe/kg body weight) were injected into the tail vein. The animals were sacrificed 5-24 h post-injection by cardiac perfusion with PBS under anesthesia, and organs were dissected and analyzed for particle homing. To suppress liver macrophages, mice were intravenously injected with liposomal clodronate suspension (100 μl per mouse), and the mice were used for experiments 24 hours later.

[7] = test system: MDA-MB-435 human breast cancer xenografts; test: Tumor magnetization by SQUID magnetometer; format: in vivo, mice
Protocol: Mice bearing MDA-MB-435 human breast cancer xenografts were intravenously injected with PBS or a bolus of 800 U/kg of heparin followed 120 min later by Ni-liposomes (or PBS) and CREKA-SPIO (or control nanoparticles). The mice received additional heparin by intraperitoneal injections (a total of 1000 U/kg) or PBS throughout the experiment. (A) Tumors were removed 6 hours after the nanoparticle injection, and magnetic signal in the tumor after different treatments was determined with SQUID. Aminated dextran SPIO served as a particle control (control SPIO). […] The magnetization values were normalized to dry weight of the tissue. Results from 3 experiments are shown. (B) Quantification of heparin effect on clotting in blood vessels. Mice were pretreated with PBS (white bars) or heparin (black bars) as described above, followed by Ni liposomes/CREKA-SPIO nanoparticles. Three sections from two tumors representing each treatment were stained with anti-CD31 for blood vessels, and the percentage of vessels positive for fluorescence and fluorescent clots was determined. […] (C) A representative example of the appearance of CREKA-SPIO particles in tumor vessels of mice treated with heparin. (D) Near-infrared imaging of mice that received Ni-liposomes followed by Cy7-labeled CREKA-SPIO with or without heparin pretreatment. […]

[8] = test system: tumor vessels; test: Nanoparticle-induced blood clotting in vessels (fibrin(ogen)/CD31 staining, microscopy); format: in vivo, mice
Protocol: as §2
Mice bearing MDA-MB-435 human breast cancer xenografts were intravenously injected with PBS or a bolus of 800 U/kg of heparin followed 120 min later by Ni-liposomes (or PBS) and CREKA-SPIO (or control nanoparticles). The mice received additional heparin by intraperitoneal injections (a total of 1000 U/kg) or PBS throughout the experiment. (A) Tumors were removed 6 hours after the nanoparticle injection, and magnetic signal in the tumor after different treatments was determined with SQUID. Aminated dextran SPIO served as a particle control (control SPIO). […] The magnetization values were normalized to dry weight of the tissue. Results from 3 experiments are shown. (B) Quantification of heparin effect on clotting in blood vessels. Mice were pretreated with PBS (white bars) or heparin (black bars) as described above, followed by Ni liposomes/CREKA-SPIO nanoparticles. Three sections from two tumors representing each treatment were stained with anti-CD31 for blood vessels, and the percentage of vessels positive for fluorescence and fluorescent clots was determined. […] (C) A representative example of the appearance of CREKA-SPIO particles in tumor vessels of mice treated with heparin. (D) Near-infrared imaging of mice that received Ni-liposomes followed by Cy7-labeled CREKA-SPIO with or without heparin pretreatment. The images were acquired 8 hours after the injection of the CREKA-SPIO particles using an Odyssey 2 NIR scanner (Li-COR Biosciences, Lincoln, Nebr.). The images shown are composites of 2 colors, red (700 nm channel, body and chow autofluorescence) and green (800 nm channel, Cy7). Arrows point to the tumors, arrowheads to the liver. Note the strong decrease in signal from the tumor in the heparin-pretreated mouse. A representative experiment out of 3 is shown.
The low magnification (40×) was used to produce these images because only blood vessels in which clotting had concentrated the CREKA-SPIO fluorescence are visible at this magnification. […]
as §3, with “To suppress liver macrophages, mice were intravenously injected with liposomal clodronate suspension (100 μl per mouse), and the mice were used for experiments 24 hours later.” left out

[9] = plain liposomes as decoy particles, injected before
[10] = after Ni-liposome pre-treatment
[11] = intravenous injection, no decoy pretreatment

CREKA-SPIO: Fluorescein-labeled CREKA coupled onto 50 nm superparamagnetic, amino dextran-coated iron oxide nanoparticles; at least 8,000 peptide molecules per particle (Fluorescein-CREKA; not fully specified; printed as fluorescein-CREKA; also: coupled to amino dextran-coated iron oxide nanoparticle)
binding to plasma clots [1]: bound to mouse and human plasma clots | prolongation in particle half-life ([2]; RES macrophages in the liver depleted with liposomal clodronate): ~5 fold | blood half-life [2, 9]: prolonged the blood half-life | prolongation of half-life in the blood ([2]; pretreatment with intravenously injected Ni-liposomes): about 5 factor | binding to plasma clots [3]: bound to mouse and human plasma clots | effect of thrombocytopenia on homing to MDA-MB-435 tumors [4]: no noticeable effect | clot formation and blood flow in tumor blood vessels [5]: time-dependent clot formation and obstruction of blood flow | tumor homing ([6]; Ni-liposome pretreatment 5 min or 48 h prior to injection): greatly increased the tumor homing | accumulation in the spleen [6, 10]: unchanged or even enhanced | particles in the liver [6, 10]: Fewer particles | accumulation in tumor [6, 11]: did not accumulate effectively | particles in reticuloendothelial system (RES) tissues [6, 11]: high concentration of particles | tumor homing [6, 9]: prolonged the blood half-life and tumor homing | particles in other organs ([6]; whether Ni-liposomes were used or not): minor amounts of CREKA-SPIO particles or no particles at all | greater accumulation in tumor, Ni-liposome-pretreated compared to PBS-pretreated mice ([7]; SQUID and fluorescence signal, tumors removed 6 hours after injection): about 6 fold | reduction of tumor accumulation of nanoparticles by heparin ([7]; heparin injected prior to CREKA-SPIO, SQUID): more than 50% | tumor vessel lumens filled with fluorescent masses (occlusion) ([8]; after liposome pretreatment): up to 20% | intravascular clotting, effect of heparin ([8]; heparin pretreatment): essentially eliminated the intravascular clotting | number of vessels with nanoparticles bound to the vessel walls, effect of heparin ([8]; heparin pretreatment): did not significantly reduce | colocalization of fibrin(ogen) staining and particle fluorescence in liver vessels ([8]; liver): no colocalization | clotting in kidneys and lungs (non-RES tissues) ([8]; low magnification images): no clotting in these tissues, with the exception of very rare clots in the kidneys
